Numbered stars: 1 amine (or outer) side, 2 acyl side, 3 side chain; on linkers, the order of the positions; unused ones are H or OH. Bridge positions count the residues as written; N and C are the ends. Square brackets hold non-standard residues; d marks the D form. Peptide text beside a SMILES is read from it. * marks the point of attachment. Bip(4'-COOH) = N[C@@H](Cc1ccc(-c2ccc(C(=O)O)cc2)cc1)C(=O)O; Bip(4'-NHAc) = CC(=O)Nc1ccc(-c2ccc(C[C@H](N)C(=O)O)cc2)cc1; Phe(3-CF3) = N[C@@H](Cc1cccc(C(F)(F)F)c1)C(=O)O; Ala(morpholin-4-yl) = N[C@@H](CN1CCOCC1)C(=O)O; Phe(3-COOH) = N[C@@H](Cc1cccc(C(=O)O)c1)C(=O)O; Phe(4-CONH2) = NC(=O)c1ccc(C[C@H](N)C(=O)O)cc1; Phe(4-COOH) = N[C@@H](Cc1ccc(C(=O)O)cc1)C(=O)O; Phe(2,4-Cl2) = N[C@@H](Cc1ccc(Cl)cc1Cl)C(=O)O; X4 = O=C([C@H](Cc1ccc2cc[nH]c2c1)N[*:1])[*:2]; Bip = N[C@@H](Cc1ccc(-c2ccccc2)cc1)C(=O)O; Phe(3-OMe) = COc1cccc(C[C@H](N)C(=O)O)c1; Phe(3-F) = N[C@@H](Cc1cccc(F)c1)C(=O)O; Phe(3-Me) = Cc1cccc(C[C@H](N)C(=O)O)c1; Abu(3S-NH2) = C[C@H](N)[C@H](N)C(=O)O; Val(3-OH) = CC(C)(O)[C@H](N)C(=O)O; 2Pal = N[C@@H](Cc1ccccn1)C(=O)O; Cha = N[C@@H](CC1CCCCC1)C(=O)O; Carboxymethyl = O=C(O)C*; NMeA = CN[C@@H](C)C(=O)O; Nle = CCCC[C@H](N)C(=O)O; Orn = NCCC[C@H](N)C(=O)O; Dab = NCC[C@H](N)C(=O)O
What was measured:
[1] = target: T1, PE-labeled human PD-L1-Ig binding to Jurkat cell line over-expressing human PD-1 (Jurkat-PD-1) (Homo sapiens, UniProt Q15116); assay: Jurkat-PD-1 Cell Binding High-Content Screening Assay (CBA): Method 1; conditions: Jurkat-PD-1 cells, PE-labeled PD-L1-Ig; μM; read-out: CBA Method 1 μM
T1 construct: expressed in transfected cells; host or cells: Jurkat
T1 sequence (Q15116 25-288): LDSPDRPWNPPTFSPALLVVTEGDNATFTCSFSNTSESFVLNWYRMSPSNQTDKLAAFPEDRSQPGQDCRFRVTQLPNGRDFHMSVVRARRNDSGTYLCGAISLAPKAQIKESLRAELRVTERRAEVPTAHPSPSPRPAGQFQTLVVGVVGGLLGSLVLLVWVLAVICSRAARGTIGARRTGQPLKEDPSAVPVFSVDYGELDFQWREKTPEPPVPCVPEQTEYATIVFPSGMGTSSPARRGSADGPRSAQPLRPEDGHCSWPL

[2] = target: T1, PE-labeled human PD-L1-Ig binding to Jurkat cell line over-expressing human PD-1 (Jurkat-PD-1); assay: Jurkat-PD-1 Cell Binding High-Content Screening Assay (CBA): Method 2 (presence and absence of tween-20); conditions: Jurkat-PD-1 cells, PE-labeled PD-L1-Ig 20 nM; presence or absence of tween-20 not given; head μM; read-out: CBA Method 2 μM
Outline: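 Compounds incubated with Jurkat cells overexpressing human PD-1 for 2 h at 37° C, tested with and without tween-20 to flag aggregation. PE-labeled human PD-L1-Ig (20 nM final) added in DMEM/10% FCS; binding read by high-content imaging.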

Compound | IC50 [1] [µM] | IC50 [2] [µM]
CC(=O)Nc1ccc(-c2ccc(C[C@@H]3NC(=O)[C@H](Cc4cccc(C)c4)NC(=O)[C@H](CC(=O)O)NC(=O)[C@H](Cc4ccc(C(=O)O)cc4)NC(=O)[C@H](CN4CCOCC4)NC(=O)CSC[C@@H](C(=O)N[C@@H](CCN)C(N)=O)NC(=O)[C@H](CCCN)NC(=O)[C@H](C(C)C)NC(=O)[C@H](Cc4cccc(F)c4)NC(=O)[C@H](CCN)NC(=O)[C@@H](CC(C)C)NC(=O)[C@H](C)N(C)C(=O)[C@H](CCC(N)=O)NC(=O)[C@H](Cc4ccc(-c5ccccc5)cc4)NC3=O)cc2)cc1 [Example 5049] ({CH2CO}-[Ala(morpholin-4-yl)][Phe(4-COOH)]D[Phe(3-Me)][Bip(4'-NHAc)][Bip]Q[NMeA][dL][Dab][Phe(3-F)]V[Orn]C[Dab]-NH2; thioether N-14) | 0.0083 | 0.007
CC(=O)Nc1ccc(-c2ccc(C[C@@H]3NC(=O)[C@H](Cc4cccc(C(F)(F)F)c4)NC(=O)[C@H](CC(=O)O)NC(=O)[C@H](Cc4ccc(C(=O)O)cc4)NC(=O)[C@H]([C@H](C)N)NC(=O)CSC[C@@H](C(=O)N[C@@H](CCN)C(N)=O)NC(=O)[C@H](CCCN)NC(=O)[C@H](C(C)C)NC(=O)[C@H](CC4CCCCC4)NC(=O)[C@H](CCN)NC(=O)[C@@H](CC(C)C)NC(=O)[C@H](C)N(C)C(=O)[C@H](CCC(N)=O)NC(=O)[C@H](Cc4ccc(-c5ccccc5)cc4)NC3=O)cc2)cc1 [Example 5050] ({CH2CO}-[Abu(3S-NH2)][Phe(4-COOH)]D[Phe(3-CF3)][Bip(4'-NHAc)][Bip]Q[NMeA][dL][Dab][Cha]V[Orn]C[Dab]-NH2; thioether N-14) | 0.0065 | 0.0059
COC[C@@H]1NC(=O)CSC[C@@H](C(=O)N[C@@H](CCN)C(N)=O)NC(=O)[C@H](CCCN)NC(=O)[C@H](C(C)C)NC(=O)[C@H](CC2CCCCC2)NC(=O)[C@H](CCN)NC(=O)[C@@H](CC(C)C)NC(=O)[C@H](C)N(C)C(=O)[C@H](CCC(N)=O)NC(=O)[C@H](Cc2ccc(-c3ccccc3)cc2)NC(=O)[C@H](Cc2ccc(-c3ccc(C(=O)O)cc3)cc2)NC(=O)[C@H](Cc2cccc(C)c2)NC(=O)[C@H](CC(=O)O)NC(=O)[C@H](Cc2ccc(OCC(=O)O)cc2)NC1=O [Example 5057] ({CH2CO}-S(Me)Y(Carboxymethyl)D[Phe(3-Me)][Bip(4'-COOH)][Bip]Q[NMeA][dL][Dab][Cha]V[Orn]C[Dab]-NH2; thioether N-14) | 0.0089 | 0.0106
CCCC[C@@H]1NC(=O)CSC[C@@H](C(=O)N[C@@H](CCN)C(N)=O)NC(=O)[C@H](CO)NC(=O)[C@H](C(C)(C)O)NC(=O)[C@H](CC2CCCCC2)NC(=O)[C@H](CCN)NC(=O)[C@@H](CC(C)C)NC(=O)[C@H](C)N(C)C(=O)[C@H](Cc2ccc(C(N)=O)cc2)NC(=O)[C@H](Cc2ccc(-c3ccccc3)cc2)NC(=O)[C@H](Cc2ccc(-c3ccc(NC(C)=O)cc3)cc2)NC(=O)[C@H](Cc2cccc(C)c2)NC(=O)[C@H](CC(=O)O)NC(=O)[C@H](Cc2ccc(OCC(=O)O)cc2)NC1=O [Example 5069] ({CH2CO}-[Nle]Y(Carboxymethyl)D[Phe(3-Me)][Bip(4'-NHAc)][Bip][Phe(4-CONH2)][NMeA][dL][Dab][Cha][Val(3-OH)]SC[Dab]-NH2; thioether N-14) | 0.0136 | 0.0131
Cc1cccc(C[C@@H]2NC(=O)[C@H](CC(=O)O)NC(=O)[C@H](Cc3ccc(OCC(=O)O)cc3)NC(=O)[C@H](CN3CCOCC3)NC(=O)CSC[C@@H](C(=O)N[C@@H](CCN)C(N)=O)NC(=O)[C@H](CCCN)NC(=O)[C@H](C(C)C)NC(=O)[C@H](CC3CCCCC3)NC(=O)[C@H](CCN)NC(=O)[C@@H](CC(C)C)NC(=O)[C@H](C)N(C)C(=O)[C@H](CCC(N)=O)NC(=O)[C@H](Cc3ccc(-c4ccccc4)cc3)NC(=O)[C@H](Cc3ccc4cc[nH]c4c3)NC2=O)c1 [Example 5037] ({CH2CO}-[Ala(morpholin-4-yl)]Y(Carboxymethyl)D[Phe(3-Me)][X4][Bip]Q[NMeA][dL][Dab][Cha]V[Orn]C[Dab]-NH2; thioether N-14) | 0.0138 | 0.0304
CC(=O)Nc1ccc(-c2ccc(C[C@@H]3NC(=O)[C@H](Cc4cccc(C(F)(F)F)c4)NC(=O)[C@H](CC(=O)O)NC(=O)[C@H](Cc4ccc(-c5ccc(C(=O)O)cc5)cc4)NC(=O)[C@H](Cc4ccc(OCC(=O)O)cc4)NC(=O)CSC[C@@H](C(=O)N[C@@H](CCN)C(N)=O)NC(=O)[C@H](CCC(=O)O)NC(=O)[C@H](C(C)C)NC(=O)[C@H](CC4CCCCC4)NC(=O)[C@H](CCN)NC(=O)[C@@H](CC(C)C)NC(=O)[C@H](C)N(C)C(=O)[C@H](CCCN)NC(=O)[C@H](Cc4ccc(-c5ccccc5)cc4)NC3=O)cc2)cc1 [Example 5084] ({CH2CO}-Y(Carboxymethyl)[Bip(4'-COOH)]D[Phe(3-CF3)][Bip(4'-NHAc)][Bip][Orn][NMeA][dL][Dab][Cha]VEC[Dab]-NH2; thioether N-14) | 0.0243 | 0.0332
Cc1cccc(C[C@@H]2NC(=O)[C@H](CC(=O)O)NC(=O)[C@H](Cc3ccc(OCC(=O)O)cc3)NC(=O)[C@H](CN3CCOCC3)NC(=O)CSC[C@@H](C(=O)N[C@@H](CCN)C(N)=O)NC(=O)[C@H](CCCN)NC(=O)[C@H](C(C)C)NC(=O)[C@H](Cc3ccccn3)NC(=O)[C@H](CCN)NC(=O)[C@@H](CC(C)C)NC(=O)[C@H](C)N(C)C(=O)[C@H](CCC(N)=O)NC(=O)[C@H](Cc3ccc(-c4ccccc4)cc3)NC(=O)[C@H](Cc3ccc(C(=O)O)cc3)NC2=O)c1 [Example 5038] ({CH2CO}-[Ala(morpholin-4-yl)]Y(Carboxymethyl)D[Phe(3-Me)][Phe(4-COOH)][Bip]Q[NMeA][dL][Dab][2Pal]V[Orn]C[Dab]-NH2; thioether N-14) | 0.0425 | 0.0171
COc1cccc(C[C@@H]2NC(=O)[C@H](CCN)NC(=O)[C@@H](CC(C)C)NC(=O)[C@H](C)N(C)C(=O)[C@H](CCC(N)=O)NC(=O)[C@H](Cc3ccc(-c4ccccc4)cc3)NC(=O)[C@H](Cc3ccc(C(=O)O)cc3)NC(=O)[C@H](Cc3cccc(C)c3)NC(=O)[C@H](CC(=O)O)NC(=O)[C@H](Cc3ccc(OCC(=O)O)cc3)NC(=O)[C@H](CN3CCOCC3)NC(=O)CSC[C@@H](C(=O)N[C@@H](CCN)C(N)=O)NC(=O)[C@H](CCCN)NC(=O)[C@H](C(C)C)NC2=O)c1 [Example 5043] ({CH2CO}-[Ala(morpholin-4-yl)]Y(Carboxymethyl)D[Phe(3-Me)][Phe(4-COOH)][Bip]Q[NMeA][dL][Dab][Phe(3-OMe)]V[Orn]C[Dab]-NH2; thioether N-14) | 0.0098 | 0.0098
Cc1cccc(C[C@@H]2NC(=O)[C@H](CC(=O)O)NC(=O)[C@H](Cc3ccc(OCC(=O)O)cc3)NC(=O)[C@H](CN3CCOCC3)NC(=O)CSC[C@@H](C(=O)N[C@@H](CCN)C(N)=O)NC(=O)[C@H](CCCN)NC(=O)[C@H](C(C)C)NC(=O)[C@H](Cc3ccc(Cl)cc3Cl)NC(=O)[C@H](CCN)NC(=O)[C@@H](CC(C)C)NC(=O)[C@H](C)N(C)C(=O)[C@H](CCC(N)=O)NC(=O)[C@H](Cc3ccc(-c4ccccc4)cc3)NC(=O)[C@H](Cc3ccc(C(=O)O)cc3)NC2=O)c1 [Example 5041] ({CH2CO}-[Ala(morpholin-4-yl)]Y(Carboxymethyl)D[Phe(3-Me)][Phe(4-COOH)][Bip]Q[NMeA][dL][Dab][Phe(2,4-Cl2)]V[Orn]C[Dab]-NH2; thioether N-14) | 0.0888 | 0.0822
CC(C)C[C@@H]1NC(=O)[C@H](Cc2c[nH]c3ccccc23)NC(=O)[C@H](CC(N)=O)NC(=O)[C@H](Cc2cccc(C(=O)O)c2)NC(=O)[C@H](Cc2ccccc2)NC(=O)CSC[C@@H](C(=O)NCC(N)=O)NC(=O)[C@H](CO)NC(=O)[C@H](C(C)C)NC(=O)[C@H](CC(C)C)NC(=O)[C@H](CC(N)=O)NC(=O)[C@@H](CC(C)C)NC(=O)[C@H](C)N(C)C(=O)[C@H](C(C)C)NC(=O)[C@H](Cc2ccc(-c3ccccc3)cc2)NC1=O [Example 5026] ({CH2CO}-F[Phe(3-COOH)]NWL[Bip]V[NMeA][dL]NLVSCG-NH2; thioether N-14) | 0.12 | 0.12
CC(=O)Nc1ccc(-c2ccc(C[C@@H]3NC(=O)[C@H](Cc4cccc(C(F)(F)F)c4)NC(=O)[C@H](CC(=O)O)NC(=O)[C@H](Cc4ccc(C(=O)O)cc4)NC(=O)[C@H](CC(C)C)NC(=O)CSC[C@@H](C(=O)N[C@@H](CCN)C(N)=O)NC(=O)[C@H](CCCN)NC(=O)[C@H](C(C)C)NC(=O)[C@H](CC4CCCCC4)NC(=O)[C@H](CCN)NC(=O)[C@@H](CC(C)C)NC(=O)[C@H](C)N(C)C(=O)[C@H](CCC(N)=O)NC(=O)[C@H](Cc4ccc(-c5ccccc5)cc4)NC3=O)cc2)cc1 [Example 5053] ({CH2CO}-L[Phe(4-COOH)]D[Phe(3-CF3)][Bip(4'-NHAc)][Bip]Q[NMeA][dL][Dab][Cha]V[Orn]C[Dab]-NH2; thioether N-14) | 0.009 | 0.0074
Cc1cccc(C[C@@H]2NC(=O)[C@H](CC(=O)O)NC(=O)[C@H](Cc3ccc(OCC(=O)O)cc3)NC(=O)[C@H](CCN)NC(=O)CSC[C@@H](C(=O)N[C@@H](CCN)C(N)=O)NC(=O)[C@H](CCC(N)=O)NC(=O)[C@H](C(C)C)NC(=O)[C@H](CC3CCCCC3)NC(=O)[C@H](CCN)NC(=O)[C@@H](CC(C)C)NC(=O)[C@H](C)N(C)C(=O)[C@H](Cc3ccc(C(N)=O)cc3)NC(=O)[C@H](Cc3ccc(-c4ccccc4)cc3)NC(=O)[C@H](Cc3ccc(OCC(=O)O)cc3)NC2=O)c1 [Example 5068] ({CH2CO}-[Dab]Y(Carboxymethyl)D[Phe(3-Me)]Y(Carboxymethyl)[Bip][Phe(4-CONH2)][NMeA][dL][Dab][Cha]VQC[Dab]-NH2; thioether N-14) | 0.0172 | 0.0106

Reference: US20240409585A1, “MACROCYCLIC IMMUNOMODULATORS” (priority 2021, published 2024)
